# Results published in US11173145B2, “Compounds useful as inhibitors of indoleamine 2,3-dioxygenase and/or tryptophan dioxygenase” (Board of Regents, The University of Texas System, priority 2017, dated 2021).
# pIC50: −log10 of the molar value.
# Target: T1, IDO1 (Homo sapiens, UniProt P14902)
# T1 construct: endogenous in cells; host or cells: HeLa cells (ATCC), IFNgamma-induced
# Test: IDO1 cell-based assay (HeLa cells, IFNgamma-induced, N-formylkynurenine/L-tryptophan by RFMS)
# Conditions: 10 ng/mL IFNgamma, 24 hours
# Method in brief: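 N-formylkynurenine and tryptophan peak areas in media measured by RFMS (C18, isocratic, d-Trp standard), giving IC50 values by regression. Source: HeLa cells incubated 24 h with IFNgamma (10 ng/mL) plus test compound at 0.5% DMSO; parallel CellTiter-Glo viability read.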
# T1 sequence (P14902 whole entry): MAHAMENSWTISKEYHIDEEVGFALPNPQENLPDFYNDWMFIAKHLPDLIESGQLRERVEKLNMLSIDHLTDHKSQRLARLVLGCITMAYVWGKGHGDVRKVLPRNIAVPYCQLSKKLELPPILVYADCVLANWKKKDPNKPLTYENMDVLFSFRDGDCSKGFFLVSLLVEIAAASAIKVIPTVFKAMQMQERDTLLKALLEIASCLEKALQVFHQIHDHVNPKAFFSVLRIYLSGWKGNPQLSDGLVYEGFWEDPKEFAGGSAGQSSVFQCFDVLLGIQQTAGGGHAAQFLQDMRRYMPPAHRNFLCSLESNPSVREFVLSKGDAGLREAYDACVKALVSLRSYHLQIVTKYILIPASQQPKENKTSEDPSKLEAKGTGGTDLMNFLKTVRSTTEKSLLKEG
row,SMILES,pIC50
1,"CCC(NC(=O)c1ccc(C#N)cn1)[C@H]1[C@@H]2C[C@@H](n3ncc(=O)c4ccccc43)C[C@@H]21 (stereo partly drawn) [Compound 83, 5-cyano-N-(1-((1R,3s,5S,6r)-3-(4-oxocinnolin-1(4H)-yl)bicyclo[3.1.0]hexan-6-yl)propyl)picolinamide]",5.70 to 6.70
2,"O=C(NC(CCO)[C@H]1[C@@H]2C[C@@H](Oc3cnnc4ccccc34)C[C@@H]21)c1ccc(Cl)cc1 (stereo partly drawn) [Compound 139, 4-chloro-N-(1-((1R,3s,5S,6r)-3-(cinnolin-4-yloxy)bicyclo[3.1.0]hexan-6-yl)-3-hydroxypropyl)benzamide]",5.70 to 6.70
3,"CCC(NC(=O)c1ccc(Cl)cc1)[C@H]1[C@@H]2C[C@@H](NS(=O)(=O)c3ccccc3)C[C@@H]21 (stereo partly drawn) [Compound 116, 4-chloro-N-(1-((1R,3s,5S,6r)-3-(phenylsulfonamido)bicyclo[3.1.0]hexan-6-yl)propyl)benzamide]",5.70 to 6.70
4,"CCC(NC(=O)c1ccc(Cl)cc1)[C@H]1[C@@H]2C[C@@H](n3cc(CO)nn3)C[C@@H]21 (stereo partly drawn) [Compound 146, 4-chloro-N-(1-((1R,3s,5S,6r)-3-(4-(hydroxymethyl)-1H-1,2,3-triazol-1-yl)bicyclo[3.1.0]hexan-6-yl)propyl)benzamide]",5.70 to 6.70
5,"CCC(NC(=O)c1ccc(Cl)cc1)[C@H]1[C@@H]2C[C@@H](n3cc(C(=O)O)nn3)C[C@@H]21 (stereo partly drawn) [Compound 94, 1-((1R,3s,5S,6r)-6-(1-(4-chlorobenzamido)propyl)bicyclo[3.1.0]hexan-3-yl)-1H-1,2,3-triazole-4-carboxylic acid]",< 5.30
6,"O=C(O)CC(NC(=O)c1ccc(Cl)cc1)[C@H]1[C@@H]2C[C@@H](Oc3ncnc4ccc(F)cc34)C[C@@H]21 (stereo partly drawn) [Compound 148, 3-(4-chlorobenzamido)-3-((1R,3s,5S,6r)-3-((6-fluoroquinazolin-4-yl)oxy)bicyclo[3.1.0]hexan-6-yl)propanoic acid]",< 5.30
7,"O=C(Nc1ccc(Cl)cc1)C1[C@H]2CC(Oc3ccnc4ccccc34)C[C@@H]12 (stereo partly drawn) [Compound 8, (1R,5S)-N-(4-chlorophenyl)-3-(quinolin-4-yloxy)bicyclo[3.1.0]hexane-6-carboxamide]",5.30 to 5.70
8,"CCC(NC(=O)c1ccc(OC)nc1)[C@H]1[C@@H]2C[C@@H](n3cnc4ccc(F)cc4c3=O)C[C@@H]21 (stereo partly drawn) [Compound 74, N-(1-((1R,3s,5S,6r)-3-(6-fluoro-4-oxoquinazolin-3(4H)-yl)bicyclo[3.1.0]hexan-6-yl)propyl)-6-methoxynicotinamide]",5.70 to 6.70
9,"CCC(NC(=O)c1ccc(Cl)cc1)[C@H]1[C@@H]2C[C@@H](NC(=O)c3cccnn3)C[C@@H]21 (stereo partly drawn) [Compound 151, N-((1R,3s,5S,6r)-6-(1-(4-chlorobenzamido)propyl)bicyclo[3.1.0]hexan-3-yl)pyridazine-3-carboxamide]",> 6.70
10,"CC[C@@H](NC(=O)c1ccc(C#N)cc1)[C@H]1[C@@H]2CC(N=[N+]=[N-])C[C@@H]21 (stereo partly drawn) [Compound 283, N-((1R)-1-((1R,5S,6r)-3-azidobicyclo[3.1.0]hexan-6-yl)propyl)-4-cyanobenzamide]",> 6.70
11,"Cn1cc(C(=O)NC[C@@H]2[C@H]3C[C@H](n4cnc5cc(F)c(F)cc54)C[C@@H]23)cn1 [Compound 319, N-(((1R,3s,5S,6r)-3-(5,6-difluoro-1H-benzo[d]imidazol-1-yl)bicyclo[3.1.0]hexan-6-yl)methyl)-1-methyl-1H-pyrazole-4-carboxamide]",< 5.30
12,"CC(NC(=O)c1ccc(C#N)cc1)[C@H]1[C@@H]2C[C@@H](n3ncc(=O)c4ccccc43)C[C@@H]21 (stereo partly drawn) [Compound 136, 4-cyano-N-(1-((1R,3s,5S,6r)-3-(4-oxocinnolin-1(4H)-yl)bicyclo[3.1.0]hexan-6-yl)ethyl)benzamide]",5.70 to 6.70
13,"O=C(Nc1ccc(Cl)cc1)N[C@H]1[C@@H]2C[C@@H](Oc3ccnc4ccc(F)cc34)C[C@@H]21 [Compound 10, 1-(4-chlorophenyl)-3-((1R,3s,5S,6r)-3-((6-fluoroquinolin-4-yl)oxy)bicyclo[3.1.0]hexan-6-yl)urea]",> 6.70
14,"CC[C@@H](NC(=O)NC1CC1)[C@H]1[C@@H]2C[C@@H](n3cnc4cc(F)c(F)cc43)C[C@@H]21 [Compound 357, 1-cyclopropyl-3-((R)-1-((1R,3S,5S,6r)-3-(5,6-difluoro-1H-benzo[d]imidazol-1-yl)bicyclo[3.1.0]hexan-6-yl)propyl)urea]",5.70 to 6.70

# Further lines, results first:
row,pIC50,SMILES
1,> 6.70,"CC[C@@H](NC(=O)c1ccc(C#N)cc1)[C@H]1[C@@H]2C[C@@H](n3c(C)nc4ccc(Cl)cc43)C[C@@H]21 [Compound 294, N-((R)-1-((1R,3S,5S,6r)-3-(6-chloro-2-methyl-1H-benzo[d]imidazol-1-yl)bicyclo[3.1.0]hexan-6-yl)propyl)-4-cyanobenzamide]"
2,> 6.70,"CC[C@@H](NC(=O)c1ccc(Cl)cc1)[C@H]1[C@@H]2C[C@@H](c3ccnc4ccc(F)cc34)C[C@@H]21 [Compound 266, 4-chloro-N—((R)-1-((1R,3S,5S,6r)-3-(6-fluoroquinolin-4-yl)bicyclo[3.1.0]hexan-6-yl)propyl)benzamide]"
3,> 6.70,"CC(C)(NC(=O)c1ccc(C#N)cc1)C1[C@H]2CC(Oc3cnnc4ccccc34)C[C@@H]12 (stereo partly drawn) [Compound 88, N-(2-((1R,5S)-3-(cinnolin-4-yloxy)bicyclo[3.1.0]hexan-6-yl)propan-2-yl)-4-cyanobenzamide]"
4,> 6.70,"CCC(NC(=O)c1ccc(Cl)cc1)[C@H]1[C@@H]2C[C@@H](N3C(=O)C(F)(F)c4ccccc43)C[C@@H]21 (stereo partly drawn) [Compound 119, 4-chloro-N-(1-((1R,3s,5S,6r)-3-(3,3-difluoro-2-oxoindolin-1-yl)bicyclo[3.1.0]hexan-6-yl)propyl)benzamide]"
5,> 6.70,"CCC(NC(=O)c1ccc(Cl)cn1)C1C2CC(n3cnc4ccc(F)cc4c3=O)CC21 [Compound 75, 5-chloro-N-(1-((1R,3s,5S,6r)-3-(6-fluoro-4-oxoquinazolin-3(4H)-yl)bicyclo[3.1.0]hexan-6-yl)propyl)picolinamide]"
6,> 6.70,"O=C(Cc1ccc(Cl)cc1)NC1[C@H]2CC(Oc3ccnc4ccccc34)C[C@@H]12 (stereo partly drawn) [Compound 30, 2-(4-chlorophenyl)-N-((1R,5S)-3-(quinolin-4-yloxy)bicyclo[3.1.0]hexan-6-yl)acetamide]"
7,> 6.70,"CCC(NC(=O)c1ccc(Cl)cc1)[C@H]1[C@@H]2C[C@@H](n3nncc3C(C)(C)O)C[C@@H]21 (stereo partly drawn) [Compound 154, 4-chloro-N-(1-((1R,3s,5S,6r)-3-(5-(2-hydroxypropan-2-yl)-1H-1,2,3-triazol-1-yl)bicyclo[3.1.0]hexan-6-yl)propyl)benzamide]"
8,> 6.70,"CCC(NC(=O)c1ccc(Cl)cc1)[C@H]1[C@@H]2C[C@@H](n3cnc4ccc(F)cc4c3=O)C[C@@H]21 (stereo partly drawn) [Compound 6, 4-chloro-N-(1-((1R,3s,5S,6r)-3-(6-fluoro-4-oxoquinazolin-3(4H)-yl)bicyclo[3.1.0]hexan-6-yl)propyl)benzamide]"
9,> 6.70,"CC(C(=O)Nc1ccc(Cl)cc1)[C@H]1[C@@H]2C[C@@H](Oc3cnnc4ccc(F)cc34)C[C@@H]21 (stereo partly drawn) [Compound 340, N-(4-chlorophenyl)-2-((1R,3s,5S,6r)-3-((6-fluorocinnolin-4-yl)oxy)bicyclo[3.1.0]hexan-6-yl)propanamide]"
